Reference: patent US8895547B2, “Substituted phenyl-oxathiazine derivatives, method for producing them, drugs containing said compounds and the use thereof” (Sanofi, priority 2011, dated 2014)

Each compound was assayed against T1, human 11β-HSD1 (Homo sapiens, UniProt P28845) (assay: Enzymatic 11beta-HSD1 test (SPA-based detection)). Conditions: human 11β-HSD1 microsome fraction, [1,2-3H]-cortisone, NADPH, 37° C. 1 hour.
T1 construct: host or cells: microsome fraction
Assay type: biochemical
Method: Enzymatic 11beta-HSD1 test:
To measure the activity of the compounds, an SPA-based detection method (Solly et al. 2005) was employed. First of all, 20 μl of the human 11β-HSD1 microsome fraction (0.2 μg of protein), prepared in 50 mM HEPES, 0.1% BSA (w/v), were applied to a plate with 384 wells. The test compounds (0.09 μl) were applied to the assay plate in 100% DMSO. The reaction was started by addition of 20 μl of [1,2-^3H]-cortisone (0.1 μCi/[…]) in assay buffer comprising 25 mM HEPES, 100 mM KCl, 5 mM NaCl, 2 mM MgCl2 and 0.25 mM NADPH. The plate was agitated at 37° C. for 1 hour. At the same time, a stop solution comprising 20 mg/ml SPA-PVT beads, 1.6 mg/ml monoclonal cortisol antibody and 0.01 mM SSR110887 (inhibitor from the Biovitrium patent) in 50 mM HEPES, 1 M NaCl and 1 M KCl was stirred at room temperature. To stop the reaction, 25 μl of the stop solution were added to each well. The plate was agitated gently at room temperature for 1 further hour and then centrifuged at 500 gav for 1 minute, in order that the SPA beads could settle out. The plate was then read in a Wallac-1450-Microbeta unit with a standard SPA program (counting time 1 min/well). The comparative compound was glycyrrhetinic acid.
Protein and radioactive substrate were dispensed with a Biomek FX unit (Beckman Coulter) for handling liquids. The test compounds were added with a Cybi-Well equipped with a 90 nl pin tool (CyBio).
Lit.: Solly S, Mundt S S, Zokian H J, Juy-Fang Ding G, Hermanowski-Vosatka A, Strulovici B and Zheng W. High-throughput screening of 11β-Hydroxysteroid dehydrogenase type 1 in scintillation proximity format. Assay Drug Dev Technol 2005; 3:377-384.

T1 sequence (P28845 whole entry): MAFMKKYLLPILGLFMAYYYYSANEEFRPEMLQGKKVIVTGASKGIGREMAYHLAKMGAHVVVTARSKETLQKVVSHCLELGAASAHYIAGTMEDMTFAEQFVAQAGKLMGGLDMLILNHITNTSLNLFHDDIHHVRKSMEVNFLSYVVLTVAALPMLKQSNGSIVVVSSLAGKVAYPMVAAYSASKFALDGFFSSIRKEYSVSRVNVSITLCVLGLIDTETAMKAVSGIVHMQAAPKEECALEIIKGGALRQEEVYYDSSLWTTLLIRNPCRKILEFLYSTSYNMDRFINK

Row | SMILES | IC50
1 | CC1(C)OC(NC2CCCCC2)=NS(=O)(=O)C1c1ccccc1 (stereo not drawn) [Example 1, Cyclohexyl-(6,6-dimethyl-4,4-dioxo-5-phenyl-5,6-dihydro-4H-4lambda6-[1,4,3]oxathiazin-2-yl)-amine] | 113 nM
2 | CC1(C)OC(NC2CCCCC2)=NS(=O)(=O)C1c1ccc(-c2ccccc2)cc1 (stereo not drawn) [Example 3, (5-Biphenyl-4-yl-6,6-dimethyl-4,4-dioxo-5,6-dihydro-4H-4lambda6-[1,4,3]oxathiazin-2-yl)-cyclohexyl-amine] | 1270 nM
3 | CC1(C)OC(N[C@@H](CCO)c2ccccc2)=NS(=O)(=O)C1c1ccc(OCc2ccccc2)cc1 (stereo partly drawn) [Example 4, (S)-3-[5-(4-Benzyloxy-phenyl)-6,6-dimethyl-4,4-dioxo-5,6-dihydro-4H-4lambda6-[1,4,3]oxathiazin-2-ylamino]-3-phenyl-propan-1-ol] | 14 nM
4 | CC1(C)OC(N[C@@H](CCO)c2ccccc2)=NS(=O)(=O)C1c1cccc(-c2ccccc2)c1 (stereo partly drawn) [Example 8, (S)-3-(5-Biphenyl-3-yl-6,6-dimethyl-4,4-dioxo-5,6-dihydro-4H-4lambda6-[1,4,3]oxathiazin-2-ylamino)-3-phenyl-propan-1-ol] | 22 nM
5 | CC1(C)OC(N[C@@H](CCO)c2ccccc2)=NS(=O)(=O)C1c1cccc(Cc2ccccc2)c1 (stereo partly drawn) [Example 10, (S)-3-[5-(3-Benzyl-phenyl)-6,6-dimethyl-4,4-dioxo-5,6-dihydro-4H-4lambda6-[1,4,3]oxathiazin-2-ylamino]-3-phenyl-propan-1-ol] | 15 nM
6 | CC1(C)OC(NC2CCCCC2)=NS(=O)(=O)C1c1cccc(Br)c1 (stereo not drawn) [Example 13, [5-(3-Bromophenyl)-6,6-dimethyl-4,4-dioxo-5,6-dihydro-4H-4lambda6-[1,4,3]oxathiazin-2-yl]-cyclohexyl-amine] | 47 nM
7 | CC1(C)OC(N[C@@H](CCO)c2ccccc2)=NS(=O)(=O)C1c1cccc(-c2cncnc2)c1 (stereo partly drawn) [Example 14, (S)-3-[6,6-Dimethyl-4,4-dioxo-5-(3-pyrimidin-5-yl-phenyl)-5,6-dihydro-4H-4lambda6-[1,4,3]oxathiazin-2-ylamino]-3-phenyl-propan-1-ol] | 32 nM
8 | CC1(C)OC(NC2CCCCC2)=NS(=O)(=O)C1(C)c1ccccc1 (stereo not drawn) [Example 18, Cyclohexyl-(5,6,6-trimethyl-4,4-dioxo-5-phenyl-5,6-dihydro-4H-4lambda6-[1,4,3]oxathiazin-2-yl)-amine] | 36 nM
9 | CC1(C)OC(NC2CCCCC2)=NS(=O)(=O)C1c1cccc(OCc2ccccc2)c1 (stereo not drawn) [Example 19, [5-(3-Benzyloxy-phenyl)-6,6-dimethyl-4,4-dioxo-5,6-dihydro-4H-4lambda6-[1,4,3]oxathiazin-2-yl]-cyclohexyl-amine] | 352 nM
10 | CC1(C)OC(NC2CCCCC2)=NS(=O)(=O)C1c1cccc(O)c1 (stereo not drawn) [Example 22, 3-(2-Cyclohexylamino-6,6-dimethyl-4,4-dioxo-5,6-dihydro-4H-4lambda6-[1,4,3]oxathiazin-5-yl)-phenol] | 163 nM
11 | COc1cccc(C2C(C)(C)OC(NC3CCCCC3)=NS2(=O)=O)c1 (stereo not drawn) [Example 23, Cyclohexyl-[5-(3-methoxy-phenyl)-6,6-dimethyl-4,4-dioxo-5,6-dihydro-4H-4lambda6-[1,4,3]oxathiazin-2-yl]-amine] | 114 nM
12 | CC1(C)OC(N[C@@H](CCO)c2ccccc2)=NS(=O)(=O)C1c1cccc(OCc2ccccc2)c1 (stereo partly drawn) [Example 24, (S)-3-[5-(3-Benzyloxy-phenyl)-6,6-dimethyl-4,4-dioxo-5,6-dihydro-4H-4lambda6-[1,4,3]oxathiazin-2-ylamino]-3-phenyl-propan-1-ol] | 21 nM

Next, values leading:

Row | IC50 | SMILES
13 | 47 nM | CC(C)(C)c1ccc(C2(C)C(C)(C)OC(N[C@@H](CCO)c3ccccc3)=NS2(=O)=O)cc1 (stereo partly drawn) [Compound 62, (S)-3-[5-(4-tert-Butylphenyl)-5,6,6-trimethyl-4,4-dioxo-5,6-dihydro-4H-4lambda6-[1,4,3]oxathiazin-2-ylamino]-3-phenylpropan-1-ol]
14 | 32 nM | C[C@H](NC1=NS(=O)(=O)C(C)(c2ccc(C(C)(C)C)cc2)C(C)(C)O1)c1ccccc1F (stereo partly drawn) [Compound 63, [5-(4-tert-Butylphenyl)-5,6,6-trimethyl-4,4-dioxo-5,6-dihydro-4H-4lambda6-[1,4,3]oxathiazin-2-yl]-[(S)-1-(2-fluorophenyl)ethyl]amine]
15 | 17 nM | CC1(C)OC(N[C@@H](CCO)c2ccccc2)=NS(=O)(=O)C1c1ccccc1 (stereo partly drawn) [Example 2, (S)-3-(6,6-Dimethyl-4,4-dioxo-5-phenyl-5,6-dihydro-4H-4lambda6-[1,4,3]oxathiazin-2-ylamino)-3-phenyl-propan-1-ol]
16 | 1670 nM | CC1(C)OC(N[C@@H](CCO)c2ccccc2)=NS(=O)(=O)C1c1ccc(O)cc1 (stereo partly drawn) [Example 5, 4-[2-((S)-3-Hydroxy-1-phenyl-propylamino)-6,6-dimethyl-4,4-dioxo-5,6-dihydro-4H-4lambda6-[1,4,3]oxathiazin-5-yl]-phenol]
17 | 29 nM | COc1ccc(C2C(C)(C)OC(N[C@@H](CCO)c3ccccc3)=NS2(=O)=O)cc1 (stereo partly drawn) [Example 6, (S)-3-[5-(4-Methoxy-phenyl)-6,6-dimethyl-4,4-dioxo-5,6-dihydro-4H-4lambda6-[1,4,3]oxathiazin-2-ylamino]-3-phenyl-propan-1-ol]
18 | 20 nM | CC1(C)OC(N[C@@H](CCO)c2ccccc2)=NS(=O)(=O)C1c1cccc(Br)c1 (stereo partly drawn) [Example 7, (S)-3-[5-(3-Bromophenyl)-6,6-dimethyl-4,4-dioxo-5,6-dihydro-4H-4lambda6-[1,4,3]oxathiazin-2-ylamino]-3-phenyl-propan-1-ol]
19 | 22 nM | Cc1cccc(C2C(C)(C)OC(N[C@@H](CCO)c3ccccc3)=NS2(=O)=O)c1 (stereo partly drawn) [Example 9, (S)-3-(6,6-Dimethyl-4,4-dioxo-5-m-tolyl-5,6-dihydro-4H-4lambda6-[1,4,3]oxathiazin-2-ylamino)-3-phenyl-propan-1-ol]
20 | 9 nM | Cc1ccc(C2C(C)(C)OC(N[C@@H](CCO)c3ccccc3)=NS2(=O)=O)cc1 (stereo partly drawn) [Example 11, (S)-3-(6,6-Dimethyl-4,4-dioxo-5-p-tolyl-5,6-dihydro-4H-4lambda6-[1,4,3]oxathiazin-2-ylamino)-3-phenyl-propan-1-ol]
21 | 45 nM | CC1(C)OC(N[C@@H](CCO)c2ccccc2)=NS(=O)(=O)C1c1ccc(-c2ccccc2)cc1 (stereo partly drawn) [Example 12, (S)-3-(5-Biphenyl-4-yl-6,6-dimethyl-4,4-dioxo-5,6-dihydro-4H-4lambda6-[1,4,3]oxathiazin-2-ylamino)-3-phenyl-propan-1-ol]
22 | 11 nM | CC1(C)OC(N[C@@H](CCO)c2ccccc2)=NS(=O)(=O)C1c1ccccc1Cl (stereo partly drawn) [Example 15, (S)-3-[5-(2-Chlorophenyl)-6,6-dimethyl-4,4-dioxo-5,6-dihydro-4H-4lambda6-[1,4,3]oxathiazin-2-ylamino]-3-phenyl-propan-1-ol]
23 | 11 nM | Cc1ccccc1C1C(C)(C)OC(N[C@@H](CCO)c2ccccc2)=NS1(=O)=O (stereo partly drawn) [Example 16, (S)-3-(6,6-Dimethyl-4,4-dioxo-5-o-tolyl-5,6-dihydro-4H-4lambda6-[1,4,3]oxathiazin-2-ylamino)-3-phenyl-propan-1-ol]
24 | 21 nM | CC1(C)OC(N[C@@H](CCO)c2ccccc2)=NS(=O)(=O)C1c1cccc(Cl)c1 (stereo partly drawn) [Example 20, (S)-3-[5-(3-Chloro-phenyl)-6,6-dimethyl-4,4-dioxo-5,6-dihydro-4H-4lambda6-[1,4,3]oxathiazin-2-ylamino]-3-phenyl-propan-1-ol]
